Experimental data taken from patent US7291347B2, “Succinate salt of O-desmethyl-venlafaxine” (Wyeth, priority 2001, dated 2007).

Test: In situ rat intestinal perfusion (site-specific absorption)
Assay type: in vivo
Details: rat, in vivo, 50 μg/mL, pH 6.8
Source text: The rat intestine perfusion technique is a direct way to measure the regional absorption properties of a test compound in the gastrointestinal tract. Rat intestinal permeability coefficient (Peff) can be used to predict human in vivo oral absorption of passively absorbed compounds. Fagerholm, M. Johansson, and […], “Comparison between permeability coefficients in rat and human jejunum”, Pharm. […] Meanwhile, some other characteristics such as formulable Maximum Absorbable Dose (MAD), FDA Biopharmaceutical Classification, etc. can also be estimated. […] Rats used in this study were Charles River CD males, ranging in weight from approximately 300-350 grams. Metoprolol (a well-absorbed and passively transported compound) was used as a standard and tested simultaneously along with the ODV compounds. […] All chemicals were of analytical grade. After each experiment, all the analytic assays were performed promptly. For isotope determinations, 0.5 mL of perfusate sample containing ^14C PEG-4000 and ^3H-mannitol was mixed with 5 mL of scintillation cocktail. Radioactivity was counted in a liquid scintillation counter (Wallac 1409). Glucose concentration was determined by the glucose oxidase method (Biochemistry Analyzer). Metoprolol and the ODV compounds were analyzed by HPLC-UV/Vis (HP-1100 with a diode-array detector), using a YMC AQ 120 μ, 5 μ, 150×4.6 mm column and step gradient mobile phase containing water/0.1% TFA and acetonitrile. The ODV compounds and metoroplol were detected at 226 and 272 nm UV wavelength, respectively. Blank perfusate was assayed to evaluate the interference at these chromatographic conditions. The perfusions were performed in three intestinal sections of anesthetized rats: duodenum-jejunum, ileum, and colon. The lengths of the segments were approximately 10-12 cm for small intestine segments and 5-6 cm for colon segments. An inflow cannula was inserted at the proximal end and an outflow cannula was inserted at the distal end. Perfusate was pumped through the segment at 0.19 mL/min, and collected at 20, 40, 55, 70, 85 and 100 minutes. […] The disappearance rates of ODV compound, metoprolol, and glucose were determined from each collection interval by comparing to the initial compound solution remaining in the syringe at the end of the 100 minutes. This is to correct for any losses due to binding to the syringe or tubing. Meanwhile, drug concentration in perfusate samples were corrected for water influx/efflux, which was computed, based on ^14C-PEG-4000 concentration changes. […] Values below this range would indicate tissue damage that allows passage of PEG-4000 outside of the perfused segment, while values above this range would indicate significant water movement out of the segment. Water movement across the gut wall was determined by calculation of net water fluid: Net Water Flux (NWF)=[(1-[…] where PEGout and PEGin are the amount of radioactivity (dpm) of ^14C-PEG-4000 in inlet and outlet sides of the perfused intestinal segment, respectively; Q is the flow rate of perfusate; and L is the length of perfused segment (cm). The presence of the ODV compound in the perfusate was determined by HPLC. The amount of drug present at each time point was corrected for water movement across the wall of the intestine: Cout,[…]) where Cout is the concentration of drug in outlet perfusate; Cout,corr is the concentration of drug in outlet perfusate corrected for water moving in or out of the segment, as determined by the recovery of ^14C-PEG-4000. Effective intestinal permcability, Peff (cm/sec), was determined by the following equation: […] Cin is the concentration of drug in inlet perfusate; 2 μrL is the inner surface area of the perfused segment, with r assumed to be 0.18 cm in the rat (see G. Amidon, […]. Crison. “A theoretical basis for a biopharmaceutic drug classification: The correlation of in vitro drug product dissolution and in vivo bioavailability.” Pharm. Res. 12, 1995, 413-420) and L the length of the perfused segment (cm). […]

Structure (SMILES): CN(C)CC(c1ccc(O)cc1)C1(O)CCCCC1.O=C(O)CCC(=O)O (stereo not drawn) [ODV succinate, O-desmethyl-venlafaxine succinate]
- Peff as percentage of metoprolol's Peff value (male, Charles River CD): about 10%
- Peff's ratio of duodenum-jejunum vs. ileum vs. colon (male, Charles River CD): 1.00:1.90:0.07
- human in vivo Fa predicted: 60-77%
